Measurements published in patent publication US20240239794A1, “PKC-Theta Modulators” (Exscientia AI Limited, priority 2021, published 2024).
Structures can show the parent of a compound that is named as a salt. Where two headings read alike, the source gives them in different places.

Columns and labels:
[1] = target: Recombinant human PKC-theta (His-tagged 362-706) (Homo sapiens (Human), UniProt Q04759); assay: PKC-theta inhibition assay (HTRF KinEASE kit); type: biochemical; conditions: ATP 6.5 μM
Sequence of Recombinant human PKC-theta (His-tagged 362-706) (Q04759 362-706): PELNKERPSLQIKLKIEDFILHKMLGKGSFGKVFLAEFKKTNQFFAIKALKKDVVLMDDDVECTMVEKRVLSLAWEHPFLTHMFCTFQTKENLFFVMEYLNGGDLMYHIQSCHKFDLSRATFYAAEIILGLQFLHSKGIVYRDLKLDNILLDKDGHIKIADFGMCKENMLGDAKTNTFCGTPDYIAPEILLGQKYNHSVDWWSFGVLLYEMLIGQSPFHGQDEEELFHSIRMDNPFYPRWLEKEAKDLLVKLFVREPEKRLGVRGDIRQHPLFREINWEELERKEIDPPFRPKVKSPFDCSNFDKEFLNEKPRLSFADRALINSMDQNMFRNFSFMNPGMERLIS
How it was run: (§1)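 HTRF KinEASE kinase assay, buffer supplemented with 10 mM MgCl2, 1 mM DTT, 0.1% Tween 20; enzyme at 10 ng/ml preincubated 30 min on ice with compound. PKC-theta: 525 nM STK substrate, 6.5 μM ATP, 30 min at 25° C; PKC-delta: 243 nM substrate, 5.7 μM ATP, 20 min. IC50 from 4-parameter fit of 10-dose series.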

[2] = target: Recombinant human PKC-delta (His-tagged 345-676) (Homo sapiens (Human), UniProt Q05655); assay: PKC-delta inhibition assay (HTRF KinEASE kit), PKC-theta/PKC-delta selectivity; type: biochemical; conditions: ratio; for PKC-theta/PKC-delta selectivity: PKC-theta over PKC-delta, HTRF assays; for PKC-theta/PKC-delta selectivity (binned): binned A to G
Sequence of Recombinant human PKC-delta (His-tagged 345-676) (Q05655 345-676): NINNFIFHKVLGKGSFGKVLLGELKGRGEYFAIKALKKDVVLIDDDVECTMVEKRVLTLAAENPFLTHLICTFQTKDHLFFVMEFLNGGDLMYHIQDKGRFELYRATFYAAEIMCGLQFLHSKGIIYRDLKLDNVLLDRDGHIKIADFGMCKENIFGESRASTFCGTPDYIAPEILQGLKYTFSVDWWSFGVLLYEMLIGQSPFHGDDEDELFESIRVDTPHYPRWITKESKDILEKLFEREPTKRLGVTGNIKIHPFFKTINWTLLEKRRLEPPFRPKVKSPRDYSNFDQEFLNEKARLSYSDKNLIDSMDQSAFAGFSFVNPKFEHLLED
How it was run: as §1

[3] = tested on: IL-2 secretion by human effector memory T cells (TEM); assay: Effector memory T cells IL-2 release assay; type: cell-based; conditions: T-cell, 24 h
How it was run: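 Human CD4+ effector memory T cells (negatively sorted from donor PBMC), 5,000 per well, stimulated with CD3/CD28 beads and 10 semi-log compound doses for 24 h at 37° C, 0.1% DMSO. Supernatant IL-2 measured by HTRF; IC50 from 4-parameter logistic fit; viability checked by flow cytometry.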

[4] = binned A to H, read-out: PKC-theta HTRF pIC50 (binned) (converted)
[5] = human CD4+ TEM cells, CD3/CD28 bead stimulation, binned A to G, read-out: PKC-theta IL2 pIC50 (binned) (converted)
[6] = human CD4+ TEM cells, CD3/CD28 bead stimulation, read-out: PKC-theta IL2 pIC50 (converted)
[7] = read-out: PKC-theta HTRF pIC50 (converted)

PKC-theta HTRF pIC50 [1] | IC50 [1, 4] [µM] | PKC-theta/PKC-delta selectivity [2] | PKC-theta/PKC-delta selectivity (binned) [2] | IC50 [3, 5] [µM] | IC50 [3, 6] [µM] | IC50 [1, 7] [µM] | SMILES | IC50 ([3]; Homo sapiens, read-out: PKC-theta IL2 pIC50 (binned) (converted)) [µM] | IC50 ([3]; Homo sapiens, read-out: PKC-theta IL2 pIC50 (converted)) [µM]
8.4 | 0.00316 to 0.01 | 9 | E (E means a ratio of between 5 and 10) | 0.0316 to 0.1 | 0.0501 | – | CC1(C)C(=O)Nc2nccc(-c3nn([C@@H]4CCCNC4)c4ccccc34)c21 [Example 19] | – | –
– | 0.001 to 0.00316 | 15 | D (D means a ratio of between 10 and 20) | 0.01 to 0.0316 | 0.0316 | 0.002 | C[C@]1(O)C(=O)Nc2nccc(-c3nn(C4CCNCC4)c4ccccc34)c21 (single isomer, unassigned) [Example 28] | – | –
5.1 | > 1 | 0.2 | G (G means a ratio of between 0 and 1) | > 1 | 10 | – | Cc1nn(C2CCNCC2)cc1-c1ccnc2[nH]c(=O)[nH]c12 [Example 2] | – | –
7.7 | 0.01 to 0.0316 | 11 | D (D means a ratio of between 10 and 20) | 0.316 to 1 | 0.501 | – | CC1(C)C(=O)Nc2nccc(-c3nn(C[C@]4(C)COCCN4)c4ccccc34)c21 [Example 109] | – | –
– | ≤ 0.001 | 12 | D (D means a ratio of between 10 and 20) | 0.0316 to 0.1 | 0.0501 | 0.000794 | CC[C@@]1(O)C(=O)Nc2nccc(-c3nn([C@H]4CCNC[C@H]4F)c4ccccc34)c21 (single isomer, unassigned) [Example 82] | – | –
9.4 | ≤ 0.001 | 14 | D (D means a ratio of between 10 and 20) | 0.01 to 0.0316 | 0.0158 | – | CC1(C)C(=O)Nc2nccc(-c3nn([C@H]4CC[C@H](N)CC4)c4ccccc34)c21 [Example 41] | – | –
– | 0.0316 to 0.1 | 28 | C (C means a ratio of between 20 and 30) | 0.316 to 1 | 0.398 | 0.0501 | CC[C@]1(C)C(=O)Nc2nccc(-c3nn([C@H]4CCNC4)c4ccccc34)c21 (single isomer, unassigned) [Example 65] | – | –
– | ≤ 0.001 | 17 | D (D means a ratio of between 10 and 20) | 0.01 to 0.0316 | 0.0126 | 0.000794 | CC[C@@]1(C)C(=O)Nc2nccc(-c3nn([C@H]4CCNC[C@H]4F)c4cc(F)ccc34)c21 (single isomer, unassigned) [Example 104] | – | –
8.1 | 0.00316 to 0.01 | 20 | C (C means a ratio of between 20 and 30) | 0.1 to 0.316 | 0.126 | – | CC1(C)C(=O)Nc2nccc(-c3nn([C@H]4CCNC4)c4cc(F)ccc34)c21 [Example 70] | – | –
7.6 | 0.01 to 0.0316 | 29 | C (C means a ratio of between 20 and 30) | > 1 | 1 | – | CC1(C)C(=O)Nc2nccc(-c3nn(C[C@]4(C)COCCN4)c4cc(F)ccc34)c21 [Example 110] | – | –
– | 0.01 to 0.0316 | 33 | B (B means a ratio of between 30 and 50) | 0.316 to 1 | 0.398 | 0.0126 | CC[C@@]1(C)C(=O)Nc2nccc(-c3nn([C@@H]4CCNC[C@@H]4F)c4ccccc34)c21 (single isomer, unassigned) [Example 105] | – | –
– | 0.001 to 0.00316 | 28 | C (C means a ratio of between 20 and 30) | 0.0316 to 0.1 | 0.0794 | 0.00251 | C[C@]1(O)C(=O)Nc2nccc(-c3nn(C4(CC#N)CCC4)c4cc(C(F)(F)F)ccc34)c21 (single isomer, unassigned) [Example 64] | – | –
8.5 | 0.00316 to 0.01 | 11 | D (D means a ratio of between 10 and 20) | 0.0316 to 0.1 | 0.1 | – | CC1(O)C(=O)Nc2nccc(-c3nn([C@H]4CCNC[C@@H]4F)c4ccccc34)c21 (stereo partly drawn) [Example 35] | – | –
7.5 | 0.0316 to 0.1 | 9 | E (E means a ratio of between 5 and 10) | 0.316 to 1 | 0.398 | – | COC1(C)C(=O)Nc2nccc(-c3nn(CC4(F)CCCNC4)c4ccccc34)c21 (stereo not drawn) [Example 67] | – | –
– | 0.0316 to 0.1 | 5 | E (E means a ratio of between 5 and 10) | > 1 | 1.58 | 0.0501 | C[C@@]1(O)C(=O)Nc2nccc(-c3nn(C4CCNCC4)c4ccccc34)c21 (single isomer, unassigned) [Example 27] | – | –
8.1 | 0.00316 to 0.01 | 13 | D (D means a ratio of between 10 and 20) | 0.1 to 0.316 | 0.1 | – | CC1(C)C(=O)Nc2nccc(-c3nn(C4CCNCC4)c4c(F)cccc34)c21 [Example 32] | – | –
9.3 | ≤ 0.001 | 11 | D (D means a ratio of between 10 and 20) | 0.01 to 0.0316 | 0.0316 | – | CC1(C)C(=O)Nc2nccc(-c3nn(C4(CO)CCNC4)c4ccccc34)c21 (stereo not drawn) [Example 23] | – | –
9.7 | ≤ 0.001 | 10 | E (E means a ratio of between 5 and 10) | 0.00316 to 0.01 | 0.01 | – | CC1(O)C(=O)Nc2nccc(-c3nn([C@@H]4CC[C@@H](N)[C@H](F)C4)c4ccccc34)c21 (stereo partly drawn) [Example 39] | – | –
8.7 | 0.001 to 0.00316 | 16 | D (D means a ratio of between 10 and 20) | 0.0316 to 0.1 | 0.0501 | – | COC1(C)C(=O)Nc2nccc(-c3nn([C@@H]4CCNC[C@@H]4F)c4ccccc34)c21 (stereo partly drawn) [Example 61] | – | –
– | 0.001 to 0.00316 | 32 | B (B means a ratio of between 30 and 50) | 0.0316 to 0.1 | 0.0794 | 0.00251 | CC[C@]1(OC)C(=O)Nc2nccc(-c3nn(CC4(F)CCNCC4)c4ccccc34)c21 (single isomer, unassigned) [Example 89] | – | –
7.1 | 0.0316 to 0.1 | 1 | F (F means a ratio of between 1 and 5) | 0.1 to 0.316 | 0.126 | – | CC1C(=O)Nc2nccc(-c3ccn(C4CCNCC4)c3)c21 (stereo not drawn) [Example 5] | – | –

SMILES | PKC-theta HTRF pIC50 [1] | IC50 [1, 4] [µM] | PKC-theta/PKC-delta selectivity [2] | PKC-theta/PKC-delta selectivity (binned) [2] | IC50 [3, 5] [µM] | IC50 [3, 6] [µM] | IC50 [1, 7] [µM] | IC50 ([3]; Homo sapiens, read-out: PKC-theta IL2 pIC50 (binned) (converted)) [µM] | IC50 ([3]; Homo sapiens, read-out: PKC-theta IL2 pIC50 (converted)) [µM]
O=c1[nH]c2nccc(-c3ccn(C4CCNCC4)c3)c2[nH]1 [Example 3, 7-[1-(4-piperidyl)pyrrol-3-yl]-1,3-dihydroimidazo[4,5-b]pyridin-2-one; Dihydrochloride] | 6.7 | 0.1 to 0.316 | 1 | F (F means a ratio of between 1 and 5) | – | – | – | > 1 | 6.31
